Here are results for 5 compounds from paper PMC11939078, “TAK-994 mechanistic investigation into drug-induced liver injury” (Toxicological Sciences, 2025).

One may read the IC50 as the concentration that inhibits the measured activity by half.

Data set [1] relates to human liver microtissues. Put plainly: Human liver microtissue (co-culture) cytotoxicity, cellular ATP. The following applies: for detection of hepatotoxicity by HepG2 72-h / human liver microtissue assays: retrospective application. In kind it is cell-based. Here is the method:
(§1) Toxicology of TAK-994 was assessed using lnSphero’s 3D lnSight Human Liver models, based on N-acetyl-L-cysteine causality assay, glutathione depletion assay, and lipopolysaccharide (LPS)-sensitization assay. Hepatotoxicity was assessed in 7- and 14-day mono and co-culture models, in which cells were exposed to TAK-994 (0.1, 0.3, 1, 3.16, 10, 31.6, or 100 μM) […].
(§2) The test system was Human 3D InSight Liver Models, production ID hLiMT_589, cryopreserved primary human hepatocytes (Lot IPDH_18; single donor) in monoculture or in co-culture with cryopreserved primary human nonparenchymal cells (Lot IPHN_17; single donor). Human liver microtissues are composed of roughly 1000 hepatocytes and 1000 non-parenchymal live cells. Non-parenchymal liver cell fractions are expected to be composed of Kupffer cells and liver endothelial cells however, these were not identified.
The culture medium was 3D InSight Human Liver Maintenance Medium TOX (Catalogue No. CS-07-001, InSphero). The treated cells in 96-well Akura™ plates were incubated in a humidified cell culture incubator (37°C, 5% CO2).
(§3) Mono and co-culture model cells were exposed to TAK-994 (0.1, 0.3, 1, 3.16, 10, 31.6, or 100 μM in 0.5% DMSO) for 7 days (TAK-994 administered on Days 0 and 4) or 14 days (TAK-994 administered on Days 0, 5, and 9). Six replicates were tested for each condition. The vehicle control was 0.5% DMSO, and the positive control was chlorpromazine (0.1, 0.3, 1, 3.16, 10, 31.6, or 100 μM in DMSO). Cellular ATP content was measured in the cell lysate on Days 7 or 14 of treatment. LDH release was measured in the cell supernatant on Days 4 and 7 or on Days 5, 9, and 14 and normalized to lysed controls.
(§4) Intracellular ATP content in model lysates was measured with the CellTiter-Glo® 2.0 Cell Viability Assay (Catalogue No. G9243, Promega). The Bioluminescent LDH Release Toxicity Assay Kit (Catalogue No. J2380, Promega) was used to assess extracellular LDH release and normalized to lysed controls. ATP, LDH, GSH, and triglycerides were measured according to internal technical operating procedures.

The next data set relates to Hepatocyte spheroids. Put plainly: Hepatocyte spheroid (monoculture, no nonparenchymal cells) cytotoxicity, cellular ATP. In kind it is cell-based, human. Particulars: Homo sapiens, Hepatocyte; cellular ATP; read-out: IC50, hepatocyte spheroids (Fig. 2B). Here is the method:
as §1, §2, §3, §4

Data set [2] deals with human liver microtissues + FFA. Put plainly: Hepatotoxicity in steatosis liver model (free fatty acids). It is filed as cell-based. Particulars: Homo sapiens, 336 h; free fatty acids added to medium; read-out: IC50, co-culture (14 days) + FFA (Fig. 3A). As to the method:
as §3, with “for” for “for 7 days (TAK-994 administered on Days 0 and 4) or”, “9). The cell culture medium was supplemented with free fatty acids of 100 μM of Oleic acid and 66 μM of Palmitic acid.” for “9).”, “Day” for “Days 7 or”, “Days” for “Days 4 and 7 or on Days”, “controls. Cellular triglyceride content was measured in the microtissues on Day 14.” for “controls.”
as §4

The nature of data set [3]: HepG2 72-h cytotoxicity assay (glucose medium, ATP content). It is filed as cell-based, human. Particulars: human, HepG2 cells. As to the method: (§5) Cytotoxicity of TAK-994 was evaluated in glucose or galactose medium after 24 h and in glucose medium after 72 h in HepG2 cells, with cryopreserved HepG2 cells thawed and seeded onto assay plates at 5,000 cells/well in glucose or galactose medium for the 24-h assay and at 2,500 cells/well in glucose medium for the 72-h assay. After ∼24 h of incubation at 37 °C in 5% CO2, the cells were incubated with test solutions under the same conditions for 24 h for the plate with 5,000 cells/well or 72 h for the plate with 2,500 cells/well. Cytotoxicity of TAK-994 was also assessed using HepG2 cells with CYP3A4 overexpression using a lentivirus vector. HepG2/CYP3A4 cells were incubated in media containing TAK-994 (0.09 to 200 μM), positive control aflatoxin B1 (0.04 to 80 μM), or 1.0% DMSO (negative control). In both cytotoxicity assays, adenosine triphosphate (ATP) content was assessed after incubation using a commercial luminescence assay (CellTiter-Glo; Promega Co., Ltd, WI, United States).
HepG2 cells (American Type Culture Collection [ATCC, VA, USA]) were acclimated to Dulbecco's Modified Eagle Medium (DMEM; Thermo Fisher Scientific, MA, USA) with either high glucose or high galactose and containing 10% FBS for 1 week then cryopreserved. The cryopreserved HepG2 cells were thawed, cultured for 24 hours, then seeded at 5000 cells/well in glucose or galactose medium for the 24-hour assay and at 2500 cells/well in glucose medium for the 72-hour assay onto the assay plates. After approximately 24 hours of incubation at 37°C in 5% CO2, the cells were incubated with test solutions under the same conditions for 24 hours for the plate with 5000 cells/well or 72 hours for the plate with 2500 cells/well. After the incubation, CellTiter-Glo® (Promega Co., Ltd., WI, USA) was added to the assay plates, cells were incubated for 30 minutes, and luminescence was recorded to measure the ATP content using an EnVision plate reader (PerkinElmer Co., Ltd., MA, USA). The test compound TAK-994 was evaluated at concentrations of 0.046, 0.14, 0.41, 1.2, 3.7, 11, 33, and 100 μM. Positive controls rotenone and staurosporine were purchased from FUJIFILM Wako Pure Chemical Corporation (Osaka, Japan) and evaluated at concentrations of 0.046, 0.14, 0.41, 1.2, 3.7, 11, 33, and 100 μM in DMSO (rotenone) or 0.0046, 0.014, 0.041, 0.12, 0.37, 1.1 , 3.3, and 10 μM in DMSO (staurosporine). Two experiments were conducted at each concentration.
Inhibition rate (%) = (1-mean of sample values / mean of Max values) × 100, where Max values = vehicle control.

The nature of data set [4]: HepG2 Glu/Gal 24-h cytotoxicity (mitochondrial toxicity). In kind it is cell-based, human. The following applies: human, HepG2 cells. As to the method: as §5
HepG2 cells (American Type Culture Collection [ATCC, VA, USA]) were acclimated to Dulbecco's Modified Eagle Medium (DMEM; Thermo Fisher Scientific, MA, USA) with either high glucose or high galactose and containing 10% FBS for 1 week then cryopreserved. […] After the incubation, CellTiter-Glo® (Promega Co., Ltd., WI, USA) was added to the assay plates, cells were incubated for 30 minutes, and luminescence was recorded to measure the ATP content using an EnVision plate reader (PerkinElmer Co., Ltd., MA, USA). The test compound TAK-994 was evaluated at concentrations of 0.046, 0.14, 0.41, 1.2, 3.7, 11, 33, and 100 μM. Positive controls rotenone and staurosporine were purchased from FUJIFILM Wako Pure Chemical Corporation (Osaka, Japan) and evaluated at concentrations of 0.046, 0.14, 0.41, 1.2, 3.7, 11, 33, and 100 μM in DMSO (rotenone) or 0.0046, 0.014, 0.041, 0.12, 0.37, 1.1 , 3.3, and 10 μM in DMSO (staurosporine). […]

Data set [5] concerns human liver microtissues. The data set can be described thus: Glutathione depletion (BSO) assay in liver microtissues. It is filed as cell-based. As to the method: as §1
Co-culture model cells were pretreated with BSO (150 μM in DMSO) and then exposed to TAK-994 (0.1, 0.3, 1, 3.16, 10, 31.6, or 100 μM in 0.5% DMSO) in the presence and absence of BSO for 14 days (during the treatment period, TAK-994 with or without BSO was administered on Days 0, 5, and 9). Six replicates were tested for each condition. The vehicle control was 0.5% DMSO and the positive control was acetaminophen (0.6, 1.25, 2.5, or 5 mM in Medium TOX). Cellular ATP content was measured in the cell lysate on Day 14 of treatment. LDH release was measured on Days 5, 9, and 14 in the cell supernatant. For cells administered BSO alone, cellular ATP content was also measured on Day 3 and LDH release was also determined between Days 0 to 3. LDH measurements were normalized to lysed controls. Cellular GSH content was measured by GSH-Glo™ Glutathione Assay (Promega) on Days 0, 3, and 14 in the positive control group.
as §4

In the next data set the test system is human hepatocytes. Also on record: method as in Thompson et al. 2012. The following applies: ref Thompson et al. 2012; cited from earlier work.

Where two headings read alike, the source gives them in different places.

Take `CN(C)CCCN1c2ccccc2Sc2ccc(Cl)cc21` [Chlorpromazine, chlorpromazine, reference compound]: the IC50 was 6.16 µM in the data set with human liver microtissues [1] (Homo sapiens, 336 h, without FFA, read-out: IC50, co-culture (14 days) (Fig. 3A)); 7.64 µM in the data set with human liver microtissues [1] (Homo sapiens, cellular ATP, read-out: IC50, liver microtissues (Fig. 2B)); 9.26 µM with Hepatocyte spheroids; 8.35 µM in data set [2].
In the case of `COc1cccc([C@H]2O[C@H](CC(=O)N3CCC(CC(=O)O)CC3)C(=O)N(CC(C)(C)COC(C)=O)c3ccc(Cl)cc32)c1OC` [TAK-475], the IC50 in the data set with human liver microtissues [1] (Homo sapiens, 336 h, read-out: Liver microtissue toxicity for 14 days IC50) came out at 58.6 µM. Further, the “detection of hepatotoxicity by HepG2 72-h / human liver microtissue assays” value in the data set on human liver microtissues [1] is on record as “detected”. In data set [3], this compound returned an IC50 at 72 h of over 100 µM. In data set [4], this compound had an IC50 at 24 h of over 100 µM.
As for `Cc1cc(OCCCS(C)(=O)=O)cc(C)c1-c1cccc(COc2ccc3c(c2)OC[C@H]3CC(=O)O)c1` [TAK-875], in the data set on human liver microtissues [1] (read-out: Liver microtissue toxicity for 14 days IC50), the IC50 worked out at 12.7 µM. In addition, the “detection of hepatotoxicity by HepG2 72-h / human liver microtissue assays” value in the data set with human liver microtissues [1] is on record as “detected”. In data set [3], this compound returned an IC50 at 72 h of over 100 µM. This compound also had an IC50 at 24 h in data set [4] of over 100 µM.
On to `CC(=O)Nc1ccc(O)cc1` [acetaminophen, reference compound], for which the “sensitization of liver microtissues by buthionine sulfoximine depletion” value in the data set with human liver microtissues [5] was “induced liver microtissue sensitivity”.
Regarding `Cc1c(C(=O)NN2CCCCC2)nn(-c2ccc(Cl)cc2Cl)c1-c1ccc(Cl)cc1` [rimonabant], the “CVB of marketed drugs without high risk of hepatotoxicity” value with human hepatocytes was “elevated CVB”.
